Laboratory results reported in patent US20040235071A1, “Methods and compositions for treating cancer using 15986, 2188, 20743, 9148, 9151, 9791, 44252, 14184, 42461, 8204, 7970, 25552, 21657, 26492, 2411, 15088, 1905, 28899, 63380, 33935, 10480, 12686, 25501, 17694, 15701, 53062, 49908, 21612, 38949, 6216, 46863, 9235, 2201, 6985, 9883, 12238, 18057, …” (Millennium Pharmaceuticals, Inc., priority 2002, published 2004).

Key:
Format in all cases: cell-based, human
[1] = test system: 15701 mRNA; test: TaqMan PI3-kinase panel, 15701 mRNA expression; conditions: 48 hours
Excerpt: In an expanded breast cancer tissue panel, 15701 mRNA was expressed at increased levels (2-131 fold) in 14/15 primary breast tumor samples when compared to 4/4 normal breast tissue samples. In a breast cancer cell model panel, 15701 mRNA was expressed at a 4-fold increased level in transformed, activated H-ras-expressing MCF10AT01 cells vs. normal MCF10A cells, and at a 5-fold increased level in transformed, activated H-ras-expressing MCF10AT3B cells when compared to normal MCF10A cells. 15701 mRNA was expressed in many breast tumor cell lines, including MCF-7, T47D, ZR-75 and MDA-MB-468. In the PI3-kinase panel, 15701 mRNA expression was decreased in MDA-MB-468, MCF-7 and LNCaP cells after 48 hours treatment with the PI3-kinase inhibitor LY294002. 15701 mRNA expression in MDA-MB-468 cells decreased 7-fold after 48 hours with LY294002 (115 uM). […]
This example describes the TaqMan™ procedure. The Taqman™ procedure is a quantitative, reverse transcription PCR-based approach for detecting mRNA. […]
(§1) During the PCR reaction, cleavage of the probe separates the reporter dye and the quencher dye, resulting in increased fluorescence of the reporter. Accumulation of PCR products is detected directly by monitoring the increase in fluorescence of the reporter dye. When the probe is intact, the proximity of the reporter dye to the quencher dye results in suppression of the reporter fluorescence. […]

[2] = test system: 39228 mRNA; test: TaqMan analysis of the Cox inhibitor study, 39228 mRNA expression in HUVEC; conditions: 40-100 mM, 10 h, relative to a vehicle (DMSO) control
Excerpt: (§2) This example describes the TaqMan™ procedure. The Taqman™ procedure is a quantitative, reverse transcription PCR-based approach for detecting mRNA. The RT-PCR reaction exploits the 5′ nuclease activity of AmpliTaq Gold™ DNA Polymerase to cleave a TaqMan™ probe during PCR. Briefly, cDNA was generated from the samples of interest, e.g., heart, kidney, liver, skeletal muscle, and various vessels, and used as the starting material for PCR amplification. In addition to the 5′ and 3′ gene-specific primers, a gene-specific oligonucleotide probe (complementary to the region being amplified) was included in the reaction (i.e., the Taqman™ probe). […]
as §1

[3] = test system: 20743 mRNA; test: Breast cancer cell model panel, 20743 mRNA expression in MCF10A cells
Procedure: On a breast cancer cell model panel, 20743 mRNA expression in MCF10A cells was increased 4-fold by 8 hrs treatment of 10 ng/ml EGF and was increased 3-fold by 3 hrs treatment with 10 nM IGF1.
as §2, §1

[4] = test system: 2201; test: Breast cancer cell model panel, 2201 in MCF10A cells; conditions: 8 hour treatment, 10 ng/ml
Procedure: In a breast cancer cell model panel, 2201 is increased 3-fold after an 8 hour treatment of MCF10A cells with 10 ng/ml EGF.
as §2, §1

**Q.** Which results are given for `O=c1cc(N2CCOCC2)oc2c(-c3ccccc3)cccc12` [LY294002]?
**A.** 15701 mRNA expression decrease ([1]; MCF-7 cells, 30 uM): 16 fold; 15701 mRNA expression decrease ([1]; MDA-MB-468 cells, 115 uM): 7 fold

**Q.** For `CC1=C(CC(=O)O)c2cc(F)ccc2/C1=C\c1ccc([S+](C)[O-])cc1` (stereo not shown) [Sulindac], which “39228 mRNA expression” value [2] is on record?
**A.** The value was “increased”.

**Q.** With “IGF1: growth factor used to treat MCF10A cells” as the compound, how does the “20743 mRNA expression increase” value ([3]; 3 hrs treatment, 10 nM) read?
**A.** The value was 3 fold.

**Q.** How did the “20743 mRNA expression increase” value ([3]; 8 hrs treatment, 10 ng/ml) turn out when “EGF: epidermal growth factor (NSDSECPLSHDGYCLHDGVCMYIEALDKYACNCVVGYIGERCQYRDLKWWELR; UniProt P01133 971-1023, looked up)” was run?
**A.** The value was 4 fold.

**Q.** And the 2201 increase [4]?
**A.** Its 2201 increase is 3 fold.

**Q.** For `CS(=O)(=O)Nc1ccc([N+](=O)[O-])cc1OC1CCCCC1` [NS398], which “39228 mRNA expression” value [2] is on record?
**A.** Its value is “increased”.
